Reference: article PMC8344235, “α-Amylase and dipeptidyl peptidase-4 (DPP-4) inhibitory effects of Melicope latifolia bark extracts and identification of bioactive constituents using in vitro and in silico approaches” (Pharmaceutical Biology, 2021)
Several values for one entry are separate records, joined by “and”; a condition that tells them apart may be missing. Equal values may be shown once. Read-outs that look alike come from different tables or passages of the source. Marks after values point to notes of the source that are not given here.

Assays:
[1] = DPPH free radical scavenging assay; settings: for IC50 / DPPH IC50: mean ± SD of triplicates; for DPPH IC50: ND = IC50 not detected at highest tested concentration (1 mg/mL)
Experimental: Free radical scavenging ability of M. latifolia fractions and compounds were determined using stable free radical 2,2-diphenyl-1-picrylhydrazyl (DPPH) following the method described by Tan et al. ([2019]). The extracts (170 μL) at varying concentrations ([…]) were mixed with 30 μL of methanolic DPPH solution (300 μM) in a 96-well microplate. The mixtures were then incubated at room temperature for 30 min in the dark, followed by an absorbance measurement at 517 nm. For the negative control well, the extract was replaced by methanol. Ascorbic acid, α-tocopherol, and BHT were used as standards.

[2] = β-Carotene bleaching assay; settings: samples 1 mg/mL, 50 °C, 2 h
Experimental: The antioxidant capacity of M. latifolia fractions and isolated constituents by β-carotene bleaching was performed according to a method described by Kassim et al. ([2019]). In brief, 210 µL of β-carotene solution (1 mg/mL in chloroform) was added to Tween 20 (42 µL) and linoleic acid (5 µL) in a round bottom flask. The chloroform was removed by rotary evaporation prior to the addition of […] of distilled water and shaken to form an emulsion. The emulsion (200 µL) was then transferred into each well of a 96-well microplate that contains 50 µL of samples (1 mg/mL). The mixture was incubated at 50 °C in the dark for 2 h, and its absorbance was measured at 470 nm at the initial time (t = 0) and every subsequent 30 min for 2 h (t = 2). Ascorbic acid, α-tocopherol, and BHT were used as positive controls. Methanol was used to replace the test samples as a negative control. The antioxidant activity (AA) was calculated according to the formula (5): (5) AA% = 1 − [(At=0 – At=2)/(Ac=0 – Ac=2)] × 100 whereby At=0 and At=2 are the absorbance of the samples measured at 0 and 2 h, respectively; Ac=0 and Ac=2 are the absorbance of negative control measured at 0 and 2 h, respectively.

[3] = biological target: T1, human-recombinant DPP-4 enzyme (Homo sapiens, UniProt P27487); assay: DPP-4 inhibitory assay (fluorescence screening kit); format: biochemical
T1 construct: purchased Cayman Chemical (Ann Arbor, MI)
Experimental: DPP-4 inhibitor screening kit (Cayman Chemical, Ann Arbor, MI) was used to evaluate the DPP-4 inhibitory activity of the test samples based on a fluorescence assay method. Briefly, samples (10 μL) with different concentrations in DMSO were each pipetted into a 96-well plate followed by the addition of diluted assay buffer (30 μL), diluted human-recombinant DPP-4 enzyme solution (10 μL), and diluted fluorogenic substrate, Gly-Pro-aminomethylcoumarin (AMC) (50 μL). […] The 96-well plate was shaken and incubated for 30 min at 37 °C.

[4] = highest tested concentration, read-out: DPP-4 IC50 not detected at the highest concentration

T1 sequence (P27487 whole entry): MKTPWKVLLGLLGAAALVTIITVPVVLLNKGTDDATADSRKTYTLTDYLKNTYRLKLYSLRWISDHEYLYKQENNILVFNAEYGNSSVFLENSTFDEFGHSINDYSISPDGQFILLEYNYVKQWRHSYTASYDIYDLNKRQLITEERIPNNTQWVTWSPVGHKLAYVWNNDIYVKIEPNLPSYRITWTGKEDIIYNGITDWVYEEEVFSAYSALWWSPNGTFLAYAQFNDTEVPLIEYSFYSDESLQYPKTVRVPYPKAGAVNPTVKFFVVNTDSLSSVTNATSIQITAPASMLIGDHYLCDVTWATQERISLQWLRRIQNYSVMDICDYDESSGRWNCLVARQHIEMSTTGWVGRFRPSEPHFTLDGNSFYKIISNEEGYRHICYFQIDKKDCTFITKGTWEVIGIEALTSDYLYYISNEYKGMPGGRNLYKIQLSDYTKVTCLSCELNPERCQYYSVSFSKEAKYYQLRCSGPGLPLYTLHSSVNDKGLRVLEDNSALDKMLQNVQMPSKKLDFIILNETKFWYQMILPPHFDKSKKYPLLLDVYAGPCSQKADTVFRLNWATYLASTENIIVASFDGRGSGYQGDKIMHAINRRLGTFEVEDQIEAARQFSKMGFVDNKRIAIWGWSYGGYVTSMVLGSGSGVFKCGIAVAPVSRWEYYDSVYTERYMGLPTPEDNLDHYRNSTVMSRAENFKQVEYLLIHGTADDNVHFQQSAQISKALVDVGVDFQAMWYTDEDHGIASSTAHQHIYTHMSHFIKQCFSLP

Row | SMILES | IC50 [1] [µM] | DPPH IC50 [1] [µg/mL] | β-Carotene bleaching activity AA (%) [2] | IC50 [3, 4] [µM] | IC50 ([3]; mean ± SD of triplicates, ND = IC50 not detected at highest tested concentration (1 mg/mL), read-out: DPP-4 IC50 (converted)) [µM] | IC50 ([3]; mean ± SD of triplicates, read-out: DPP-4 IC50 (converted)) [µM] | DPPH IC50 not detected at the highest concentration ([1]; highest tested concentration) [µg/mL]
1 | O=C1O[C@H]([C@@H](O)CO)C(O)=C1O [Ascorbic acid] | 85.2 | 15.00 ± 0.01 | 35.23 ± 0.02^g % | – | – | – | –
2 | Cc1cc(C(C)(C)C)c(O)c(C(C)(C)C)c1 [BHT, butylated hydroxytoluene] | 44.9 | 9.90 ± 0.03 | 76.42% and 76.42 ± 0.02^c % | – | – | – | –
3 | CC[C@H](CC[C@@H](C)[C@H]1CC[C@H]2[C@@H]3CC=C4C[C@@H](O)CC[C@]4(C)[C@H]3CC[C@]12C)C(C)C [Compound 1, β-sitosterol] | – | – | – | > 2410 | – | – | –
4 | COc1c(OC)c2c(OC)c3ccoc3cc2oc1=O [Compound 2, halfordin] | 6430 | 1776.01 ± 0.16 | 88.48% and 88.48 ± 0.02^b % | > 3620 | – | – | –
5 | COC(=O)/C=C/c1ccc(O)cc1 [Compound 3, methyl p-coumarate] | – | – | 1.08 ± 0.02^g % | – | 911 | 911 | > 1000
6 | O=C(O)c1ccc(O)c(O)c1 [Compound 4, protocatechuic acid] | – | – | – | > 6490 | – | – | –
7 | Cc1c(C)c2c(c(C)c1O)CC[C@@](C)(CCC[C@H](C)CCC[C@H](C)CCCC(C)C)O2 [α-Tocopherol] | 43.6 | 18.79 ± 0.01 | 98.01 ± 0.02^a % | – | – | – | –
